# Biological target: human metabotropic Glutamate 4 receptor (mGluR4) (Homo sapiens (Human), UniProt Q14833)
# Assay: Assay A: in vitro testing of mGluR4 potency (glutamate-induced cAMP lowering, HTRF cAMP)
# Assay type: cell-based
# Settings: HEK293 cells overexpressing human mGluR4; 10 uM L-glutamic acid, 1 uM forskolin; compounds of the present invention
# Method in brief: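 HEK293 cells overexpressing human mGluR4 treated 30 min at room temperature with compound plus 10 uM L-glutamate, 1 uM forskolin, 0.5 mM IBMX, 0.1% BSA, 1% DMSO. cAMP read by HTRF (665/615 nm ratio), normalized to glutamate (100%) and no-glutamate (0%) controls as percent of control.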
# Sequence of human metabotropic Glutamate 4 receptor (mGluR4) (Q14833 33-912): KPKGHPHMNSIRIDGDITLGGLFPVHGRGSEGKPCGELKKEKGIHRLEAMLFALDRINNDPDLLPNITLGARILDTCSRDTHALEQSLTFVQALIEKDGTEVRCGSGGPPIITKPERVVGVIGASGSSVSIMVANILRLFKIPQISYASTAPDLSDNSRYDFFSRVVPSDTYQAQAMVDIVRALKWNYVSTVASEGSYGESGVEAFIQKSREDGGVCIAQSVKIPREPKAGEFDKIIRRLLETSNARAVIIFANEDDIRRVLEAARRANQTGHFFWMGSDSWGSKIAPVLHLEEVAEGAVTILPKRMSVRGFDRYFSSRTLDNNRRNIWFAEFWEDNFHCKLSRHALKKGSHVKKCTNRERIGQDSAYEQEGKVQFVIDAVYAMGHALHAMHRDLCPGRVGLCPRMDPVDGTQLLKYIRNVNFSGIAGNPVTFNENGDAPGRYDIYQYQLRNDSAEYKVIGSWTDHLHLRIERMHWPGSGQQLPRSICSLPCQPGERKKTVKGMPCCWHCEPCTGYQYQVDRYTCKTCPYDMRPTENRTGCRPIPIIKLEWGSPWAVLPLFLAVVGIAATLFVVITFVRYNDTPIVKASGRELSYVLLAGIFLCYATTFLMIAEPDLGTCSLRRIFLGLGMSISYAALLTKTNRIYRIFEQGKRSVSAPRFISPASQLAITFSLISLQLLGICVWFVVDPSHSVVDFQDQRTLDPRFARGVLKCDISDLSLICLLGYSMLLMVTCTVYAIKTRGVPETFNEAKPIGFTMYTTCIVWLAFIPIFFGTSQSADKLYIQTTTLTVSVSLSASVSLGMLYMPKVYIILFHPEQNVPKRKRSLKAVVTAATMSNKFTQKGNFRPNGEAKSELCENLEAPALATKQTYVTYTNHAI
row,SMILES,IC50 [nM]
1,"COCCn1c([C@@H](NC(=O)c2cnc(C(F)F)cn2)[C@@H]2CCOC2)nc2cc(C(F)(F)F)ccc21 [Example 90, 5-(difluoromethyl)-N-[(S)-[1-(2-methoxyethyl)-5-(trifluoromethyl)-1H-1,3-benzodiazol-2-yl][(3S)-oxolan-3-yl]methyl]pyrazine-2-carboxamide]",6
2,COCCn1c(C(NC(=O)c2cnc(C(F)F)cn2)C2CCOC2)nc2cc(C(F)(F)F)ccc21 (stereo not drawn) [Example 90-3],13
3,"COCCn1c([C@@H](NC(=O)c2cnc(C)cn2)[C@@H]2CCOC2)nc2cc(Cl)ccc21 [Example 91, N-[(S)-[5-chloro-1-(2-methoxyethyl)-1H-1,3-benzodiazol-2-yl][(3S)-oxolan-3-yl]methyl]-5-methylpyrazine-2-carboxamide]",11
4,"Cc1cnc(C(=O)N[C@@H](CC2CC2)c2nc3cc(Cl)ccc3n2C2CC2)cn1 [Example 92, N-[(1S)-1-(5-chloro-1-cyclopropyl-1H-1,3-benzodiazol-2-yl)-2-cyclopropylethyl]-5-methylpyrazine-2-carboxamide]",18
5,"Cc1cnc(C(=O)N[C@H](c2nc3cc(C(F)(F)F)ccc3n2C)C2(O)CCC2)cn1 [Example 93, N-[(R)-(1-hydroxycyclobutyl)[1-methyl-5-(trifluoromethyl)-1H-1,3-benzodiazol-2-yl]methyl]-5-methylpyrazine-2-carboxamide]",9
6,"Cn1c([C@H](CC2CC2)NC(=O)c2cnc(C(F)F)cn2)nc2cc(F)c(F)cc21 [Example 94, N-[(1S)-2-cyclopropyl-1-(5,6-difluoro-1-methyl-1H-1,3-benzodiazol-2-yl)ethyl]-5-(difluoromethyl)pyrazine-2-carboxamide]",16
7,"Cc1cnc(C(=O)N[C@@H](CC2CC2)c2nc3cc(F)ccc3n2CCOC(F)F)cn1 [Example 95, N-[(1S)-2-cyclopropyl-1-{1-[2-(difluoromethoxy)ethyl]-5-fluoro-1H-1,3-benzodiazol-2-yl}ethyl]-5-methylpyrazine-2-carboxamide]",13
8,"Cc1cnc(C(=O)N[C@H](c2nc3cc(C)c(F)cc3n2C)C2CC2)cn1 [Example 96, N-[(S)-cyclopropyl (6-fluoro-1,5-dimethyl-1H-1,3-benzodiazol-2-yl)methyl]-5-methylpyrazine-2-carboxamide]",15
9,"CCn1c([C@@H](NC(=O)c2cnc(C)cn2)[C@@H]2CCOC2)nc2cc(OC(F)(F)F)ccc21 [Example 97, N-[(S)-[1-ethyl-5-(trifluoromethyoxy)-1H-1,3-benzodiazol-2-yl][(3S)-oxolan-3-yl]methyl]-5-methylpyrazine-2-carboxamide]",20
10,"CCn1c([C@@H](NC(=O)c2cnc(C)cn2)C(C)(C)O)nc2cc(OC(F)(F)F)ccc21 [Example 98, N-[(1R)-1-[1-ethyl-5-(trifluoromethoxy)-1H-1,3-benzodiazol-2-yl]-2-hydroxy-2-methylpropyl]-5-methylpyrazine-2-carboxamide]",10
11,"O=C(N[C@@H](CC1CC1)c1nc2cc(F)ccc2n1CCOC(F)F)c1cnc(C(F)F)cn1 [Example 99, N-[(1S)-2-cyclopropyl-1-{1-[2-(difluoromethoxy)ethyl]-5-fluoro-1H-1,3-benzodiazol-2-yl}ethyl]-5-(difluoromethyl)pyrazine-2-carboxamide]",9
12,"Cc1cnc(C(=O)N[C@H](c2nc3cc(Cl)c(F)cc3n2C)C2CC2)cn1 [Example 100, N-[(S)-(5-chloro-6-fluoro-1-methyl-1H-1,3-benzodiazol-2-yl)(cyclopropyl)methyl]-5-methylpyrazine-2-carboxamide]",19
13,"Cc1cnc(C(=O)N[C@H](c2nc3cc(Cl)ccc3n2C2CC2)C2CC2)cn1 [Example 101, N-[(S)-(5-chloro-1-cyclopropyl-1H-1,3-benzodiazol-2-yl)(cyclopropyl)methyl]-5-methylpyrazine-2-carboxamide]",9
14,"COCCn1c([C@@H](NC(=O)c2cnc(C(F)F)cn2)[C@H]2CCOC2)nc2cc(C(F)(F)F)ccc21 [Example 102, 5-(difluoromethyl)-N-[(S)-[1-(2-methoxyethyl)-5-(trifluoromethyl)-1H-1,3-benzodiazol-2-yl][(3R)-oxolan-3-yl]methyl]pyrazine-2-carboxamide]",13
15,"COCCn1c([C@@H](NC(=O)c2cnc(C)cn2)[C@H]2CCCOC2)nc2cc(C(F)(F)F)ccc21 [Example 103, N-[(S)-[1-(2-methoxyethyl)-5-(trifluoromethyl)-1H-1,3-benzodiazol-2-yl][(3R)-oxan-3-yl]methyl]-5-methylpyrazine-2-carboxamide]",8
16,"CCn1c([C@@H](NC(=O)c2cnc(C)cn2)C(C)(C)O)nc2cc(C(F)(F)F)ccc21 [Example 104, N-[(1R)-1-[1-ethyl-5-(trifluoromethyl)-1H-1,3-benzodiazol-2-yl]-2-hydroxy-2-methylpropyl]-5-methylpyrazine-2-carboxamide]",17

# Second part, the compound after the results:
row,IC50 [nM],SMILES
1,8,"Cc1cnc(C(=O)N[C@@H](CC2CC2)c2nc3cc(OC(F)(F)F)ccc3n2C)cn1 [Example 105, N-[(1S)-2-cyclopropyl-1-[1-methyl-5-(trifluoromethoxy)-1H-1,3-benzodiazol-2-yl]ethyl]-5-methylpyrazine-2-carboxamide]"
2,11,"Cn1c([C@H](CC2CC2)NC(=O)c2cnc(C(F)F)cn2)nc2cc(Cl)ccc21 [Example 106, N-[(1S)-1-(5-chloro-1-methyl-1H-1,3-benzodiazol-2-yl)-2-cyclopropylethyl]-5-(difluoromethyl)pyrazine-2-carboxamide]"
3,13,"Cc1cnc(C(=O)N[C@H](c2nc3c(Cl)c(F)ccc3n2C)C2CC2)cn1 [Example 107, N-[(S)-(4-chloro-5-fluoro-1-methyl-1H-1,3-benzodiazol-2-yl)(cyclopropyl)methyl]-5-methylpyrazine-2-carboxamide]"
4,6,"O=C(N[C@@H](CC1CC1)c1nc2cc(Cl)ccc2n1CCOC(F)F)c1cnc(C(F)F)cn1 [Example 108, N-[(1S)-1-{5-chloro-1-[2-(difluoromethoxy)ethyl]-1H-1,3-benzodiazol-2-yl}-2-cyclopropylethyl]-5-(difluoromethyl)pyrazine-2-carboxamide]"
5,6,"CCc1c(Br)ccc2c1nc([C@@H](NC(=O)c1cnc(C)cn1)C(C)(C)O)n2C [Example 109, N-[(1R)-1-(5-bromo-4-ethyl-1-methyl-1H-1,3-benzodiazol-2-yl)-2-hydroxy-2-methylpropyl]-5-methylpyrazine-2-carboxamide]"
6,14,"Cc1cnc(C(=O)N[C@H](c2nc3cc(F)c(Br)cc3n2C)C2CC2)cn1 [Example 110, N-[(S)-(6-bromo-5-fluoro-1-methyl-1H-1,3-benzodiazol-2-yl)(cyclopropyl)methyl]-5-methylpyrazine-2-carboxamide]"
7,10,"O=C(N[C@@H](CC1CC1)c1nc2cc(F)c(F)cc2n1CCOC(F)F)c1cnc(C(F)F)cn1 [Example 111, N-[(1S)-2-cyclopropyl-1-{1-[2(difluoromethoxy)ethyl]-5,6-difluoro-1H-1,3-benzodiazol-2-yl}ethyl]-5-(difluoromethyl)pyrazine-2-carboxamide]"
8,15,"COc1c(Cl)ccc2c1nc([C@@H](NC(=O)c1cnc(C)cn1)C1CC1)n2C [Example 112, N-[(S)-(5-chloro-4-methoxy-1-methyl-1H-1,3-benzodiazol-2-yl)(cyclopropyl)methyl]-5-methylpyrazine-2-carboxamide]"

# — US20240182453A1, “NOVEL SUBSTITUTED PYRAZINE-CARBOXAMIDE DERIVATIVES” (Boehringer Ingelheim International GmbH, priority 2022, published 2024)
